The test system of one series is MDSCs. As to the kind of experiment: Inhibition of MDSC chemotaxis (Transwell, Hepa1-6 tumor-conditioned medium). It is filed as cell-based, mice. The settings on record: 12 h treatment, 24 h Transwell. How it is done:
Hepa1-6 mouse hepatocellular carcinoma cells were uniformly seeded into 6-well plates. After cells reached confluence, supernatant was aspirated, and 1-1.5 mL fresh medium was added to each well. Following 24 h culture, supernatant was collected, centrifuged at 1600 rpm for 5 min, aspirated, and filtered through a 0.22 µm membrane to obtain tumor-conditioned medium for subsequent use. Euthanize mice by cervical dislocation and immerse in 75% ethanol solution for 5 min. Under sterile conditions, remove the tibia, cut both ends of the bone, and aspirate the bone marrow into a 1 mL syringe. Repeat flushing into a 15 mL centrifuge tube. Centrifuge at 1600 rpm for 5 min to collect bone marrow cells. Wash twice with 1×PBS. Resuspend cells in complete RPMI 1640 medium containing cytokines GM-CSF (10 ng/mL) and IL-4 (10 ng/mL) to stimulate differentiation into MDSCs. Count cells, adjust density to 1×10^6 cells/mL, and uniformly seed into 24-well plates at 300 µL per well. […] Centrifuge at 1600 rpm for 5 min, remove supernatant, resuspend cells in 300 µL fresh medium, and place into Transwell chambers. Add 600 µL normal medium (control group) or tumor-conditioned medium (model group) to the lower chamber. Co-culture for 24 h.

Another series has as its system CCR2 mRNA. Kind of series: CCR2 mRNA level in MDSCs (PCR). It is filed as cell-based, mice. The conditions noted are these: CCR2 mRNA levels in MDSCs, 2 h. How it is done:
Mice were euthanized by cervical dislocation and immersed in 75% ethanol solution for 5 min. Under sterile conditions, the tibia was removed, both ends of the bone were cut, and bone marrow was repeatedly flushed into a 15 mL centrifuge tube using a 1 mL syringe filled with culture medium. Centrifuge at 1600 rpm for 5 min to collect bone marrow cells. Wash twice with 1×PBS, then resuspend in RPMI 1640 complete medium containing GM-CSF (10 ng/mL) + IL-4 (10 ng/mL) and transfer to a cell culture dish to stimulate differentiation of bone marrow cells into MDSCs. Count cells and adjust density to 1 × 10^6 cells/mL in complete medium. Seed cells uniformly into 6-well plates at 2 mL per well. […] After incubation, collect cells into centrifuge tubes, centrifuge at 1600 rpm for 5 min, wash once with 1×PBS, and add 500 µL RNA extraction reagent to each tube. After centrifugation to obtain the pellet, add 20 µL DEPC-treated water to each tube to dissolve the pellet. Determine RNA concentration and reverse transcribe to cDNA. Add the cDNA, primers, and reverse transcriptase to a 96-well plate. Centrifuge at 4000 rpm for 5 min, then place in a PCR instrument for detection.

The nature of series [1]: Water solubility testing of compounds (HPLC). The conditions noted are these: deionized water, 37 °C water bath.
A further series concerns 4T1 cells. It is filed as in vivo, BALB/c mice. The conditions noted are these: 4T1, oral 40 µmol/kg/day, 3 weeks. How it is done: 4T1 cells were cultured and expanded in vitro. […] A 100 µL aliquot of this suspension was injected subcutaneously into the left forelimb axilla of female BALB/c mice. […] Daily oral administration was performed for 3 weeks. During the treatment period, mouse body weight and tumor diameter were measured daily. At the end of the experiment, mice were euthanized by cervical dislocation, and tumors were removed for weighing. Tumor volume (TV) was calculated using the formula: TV = 1/2 × a × b^2, where a represents the longest diameter of the tumor and b represents the shortest diameter.

Series [2] is described as follows: Conversion rate of salt-form prodrugs to parent compound in mouse plasma. It is filed as in vitro ADME. The settings on record: 37 °C. How it is done: Pharmaceutically acceptable salts of guaiane-type sesquiterpene lactone derivatives were selected and evaluated for their conversion rates to Compound 1 and Compound 83 in plasma and HEPES buffer, with results shown in Tables 2-1, 2-2, 3-1, and 3-2.
Plasma Preparation: Collect mouse plasma into an EP tube pre-loaded with sodium heparin, centrifuge at 8000 rpm for 10 minutes at 4°C, and then collect the supernatant.
Sample Analysis: Dissolve 0.6 mg of the compound in 250 µl of deionized water separately. Add 250 µl of mouse serum or HEPES 7.4 solution to the sample, incubate at a constant temperature of 37 °C, and collect samples at different time points. Pipette 20 µl of the sample to an EP tube, add 60 µl of methanol, vortex to mix thoroughly, and centrifuge at 12,000 rpm at 4 °C for 10 min. At 1 h, 2 h, 4 h, 8 h, and 12 h respectively, collect the supernatant for HPLC analysis. Inject 10 µL of sample and record the corresponding peak areas. Chromatographic conditions: Hanbang C18 column (4.6 × 250 mm, 5 µm); mobile phase: acetonitrile: […] ammonium formate solution = 60:40; flow rate 1.0 mL/min; detection wavelength 210 nm; column temperature 30 °C. [drawing 171] Table 2-1. Conversion Rate of Compounds 20-42 to Compound 1 at Different Time Points in HEPES Buffer Solution

Series [3] can be described thus: Conversion rate of salt-form prodrugs to parent compound in HEPES buffer solution. It is filed as physicochemical. How it is done: Adjust the pH to 7.4 using 0.5 M NaOH, then dilute to a final volume 100 mL with distilled water.
Sample Analysis: Dissolve 0.6 mg of the compound in 250 µl of deionized water separately. Add 250 µl of mouse serum or HEPES 7.4 solution to the sample, incubate at a constant temperature of 37 °C, and collect samples at different time points. Pipette 20 µl of the sample to an EP tube, add 60 µl of methanol, vortex to mix thoroughly, and centrifuge at 12,000 rpm at 4 °C for 10 min. At 1 h, 2 h, 4 h, 8 h, and 12 h respectively, collect the supernatant for HPLC analysis. Inject 10 µL of sample and record the corresponding peak areas.

A further series has as its system MDSCs and T cells. Kind of series: T cell proliferation in a co-culture model of MDSCs and T cells (flow cytometry). It is filed as cell-based, mice. The conditions noted are these: MDSCs treated with 1 µM compound for 12 h, 48 h co-culture with T cells (1:1), compared to the control group. How it is done:
Under sterile conditions, the tibia was removed, both ends of the bone were cut, and bone marrow was repeatedly flushed into a 15 mL centrifuge tube using a 1 mL syringe filled with culture medium. Centrifuge at 1600 rpm for 5 min to collect bone marrow cells. […] The spleen cell suspension was then transferred into a 15 mL centrifuge tube. Centrifuge at 1600 rpm for 5 min to collect T cells. Wash twice with 1×PBS. Resuspend the centrifuged T cells in 1 mL PBS and add 1 mL of 10 µM CFDA-SE solution. Incubate at room temperature for 8 min. […] After drug administration, collect MDSC cells into centrifuge tubes. Centrifuge at 1600 rpm for 5 min, remove supernatant, resuspend in 1 mL fresh medium, and plate. Add 1 mL stimulated activated T cells (1:1 ratio) for 48 h co-culture. After incubation, collect cells into centrifuge tubes, wash twice with PBS, and incubate with Fc antibody at room temperature in the dark for 10 min. Add CD3-labeled flow cytometry antibody and incubate at 4 °C in the dark for 30 min. After incubation, wash cells with PBS, resuspend in 300 µL PBS, and analyze by flow cytometry.
For orientation: A flow cytometer gives signals particle by particle.

Series [4] concerns chronic kidney injury induced by unilateral ureteral ligation. Kind of series: Unilateral ureteral ligation (UUO) chronic kidney injury model in mice: Scr and BUN. It is filed as in vivo, C57BL/6 mice. The settings on record: serum, 14 days.
Series [5] concerns renal injury markers (Ngal, Havcr1), inflammatory cytokines (TNF, IL-6, IL-1), fibrosis-related factors (α-Sma, Col1a1, Tgfb1). Kind of series: Folic acid acute kidney injury model in mice: Q-PCR of kidney tissue. It is filed as in vivo, C57BL/6 mice. The settings on record: kidney mRNA, acute model (FA).

Consider `C=C1C(=O)O[C@H]2[C@H]1CCC(C)=C1CC[C@@](C)(OC(=O)NCCN3CCOCC3)[C@@H]12` [compound 78], for which the entries for the “Suppression Rate (%)” value in the series with MDSCs (1 µM) and in the series with MDSCs (10 µM) were 29.0% and 67.1%, respectively. Also, the “CCR2 mRNA suppression rate in MDSCs (%)” value came to 23.0% with CCR2 mRNA (1 µM) and 52.7% in the series on CCR2 mRNA (10 µM).

As for `C[C@@]12CC[C@@H]3[C@H](OC(=O)[C@H]3CN3CCCCCCC3)[C@@H]3[C@]1(CC[C@@]3(C)O)C2` [compound 19], in series [1], the Water-solubility was found to be 623 µg/mL.

For the compound `CC1=C2CC[C@@](C)(OC(=O)N3CCCCC3)[C@@H]2[C@H]2OC(=O)[C@@H](CN(C)C)[C@@H]2CC1` [compound 102], in the series on 4T1 cells, the antitumor effects result is reported as “no significant antitumor effects”. The Release rate in series [2] (conversion to Compound 83, mouse plasma, 1 h) worked out at 6.6%; in [2] (conversion to Compound 83, mouse plasma, 2 h), 14.0%; in series [2] (conversion to Compound 83, mouse plasma, 4 h), 26.0%; in series [2] (conversion to Compound 83, mouse plasma, 8 h), 42.4%; in series [2] (conversion to Compound 83, mouse plasma, 12 h), 47.8%; in series [3] (conversion to Compound 83, HEPES buffer pH 7.4, 37 °C, 1 h) it was 6.8%. In addition, the Release rate in series [3] (conversion to Compound 83, HEPES buffer pH 7.4, 37 °C, 2 h) came out at 14.6%; in [3] (conversion to Compound 83, HEPES buffer pH 7.4, 37 °C, 4 h) it was 24.8%; in series [3] (conversion to Compound 83, HEPES buffer pH 7.4, 37 °C, 8 h), 43.0%; in series [3] (conversion to Compound 83, HEPES buffer pH 7.4, 37 °C, 12 h) it was 51.8%.

Regarding `C[C@@]12CC[C@@H]3[C@H](OC(=O)[C@H]3CN3CC4CCCC4C3)[C@@H]3[C@]1(CC[C@@]3(C)O)C2` (stereo partly shown) [compound 13], the Water-solubility in [1] worked out at 419 µg/mL.

`C=C1C(=O)O[C@H]2[C@H]1CCC(C)=C1CC[C@@](C)(OC(=O)NCCN3CCOCC3)[C@@H]12` [compound 98] came in with a Water-solubility in series [1] of 202500 µg/mL. Besides, in the series on MDSCs and T cells, the “T-cell proliferation rate (%)” value is listed as “+ (T-cell proliferation rate within the 0-20% range compared to the control group)”.

In turn, `CCCCN(CCCC)C[C@@H]1C(=O)O[C@H]2[C@H]1CC[C@@]1(C)C[C@]13CC[C@@](C)(O)[C@H]23` [compound 11] displayed a Water-solubility in [1] of 682 µg/mL.

For the compound `C[C@@]12CC[C@@H]3[C@H](OC(=O)[C@H]3CN3CCC4(CC3)CC4)[C@@H]3[C@]1(CC[C@@]3(C)O)C2` [compound 18], the Water-solubility in series [1] turned out to be 584 µg/mL.

For the compound `CN(C)C[C@@H]1C(=O)O[C@H]2[C@H]1CC[C@@]1(C)C[C@]13CC[C@@](C)(O)[C@H]23` [compound 21], the BUN came to 17.63±1.13 in series [4] (oral gavage 0.1 mg/kg) and 9.45±1.55 in series [4] (oral gavage 1 mg/kg, 1 mg/kg). For the same compound, the Scr was 157.79±21.92 in [4] (oral gavage 0.1 mg/kg) and 79.87±13.44 in [4] (oral gavage 1 mg/kg, 1 mg/kg). For the same compound, the Release rate in series [2] (conversion to Compound 1, mouse plasma, 1 h) was found to be 5.4%; in series [2] (conversion to Compound 1, mouse plasma, 2 h), 10.7%; in [2] (conversion to Compound 1, mouse plasma, 4 h), 17.9%; in series [2] (conversion to Compound 1, mouse plasma, 8 h) it was 39.3%; in [2] (conversion to Compound 1, mouse plasma, 12 h) it was 55.4%; in [3] (conversion to Compound 1, HEPES buffer pH 7.4, 37 °C, 1 h), 3.3%. Besides, the Release rate in series [3] (conversion to Compound 1, HEPES buffer pH 7.4, 37 °C, 2 h) came out at 10.2%; in series [3] (conversion to Compound 1, HEPES buffer pH 7.4, 37 °C, 4 h), 18.1%; in series [3] (conversion to Compound 1, HEPES buffer pH 7.4, 37 °C, 8 h), 38.9%; in [3] (conversion to Compound 1, HEPES buffer pH 7.4, 37 °C, 12 h), 51.9%. Besides, the α-Sma in series [5] (oral 0.1 mg/kg) amounted to 1.80±0.42; in series [5] (oral 1 mg/kg, 1 mg/kg), 0.90±0.21.

In the case of `C[C@@]12CC[C@@H]3[C@H](OC(=O)[C@H]3CN3CCNCC3)[C@@H]3[C@]1(CC[C@@]3(C)O)C2` [compound 7], the Water-solubility in series [1] is 1488 µg/mL.

Regarding `CCCN(CCC)C[C@@H]1C(=O)O[C@H]2[C@H]1CC[C@@]1(C)C[C@]13CC[C@@](C)(O)[C@H]23` [compound 10], the Water-solubility in [1] worked out at 715 µg/mL.

Consider `C[C@@]12CC[C@@H]3[C@H](OC(=O)[C@H]3CN3CCC4(CCCC4)CC3)[C@@H]3[C@]1(CC[C@@]3(C)O)C2` [compound 15], for which, in [1], the Water-solubility is 310 µg/mL.

As to `C=C1C(=O)O[C@H]2[C@H]1CCC(C)=C1CC[C@@](C)(OC(=O)NCCN3CCOCC3)[C@@H]12` [compound 99], in the series with 4T1 cells, the antitumor effects result was “no significant antitumor effects”.

Compound `CCOC(=O)[C@@H]1CCCN1C[C@@H]1C(=O)O[C@H]2[C@H]1CC[C@@]1(C)C[C@]13CC[C@@](C)(O)[C@H]23` [compound 4] displayed a Water-solubility in series [1] of 822 µg/mL. For the same compound, in the series with MDSCs and T cells, the “T-cell proliferation rate (%)” value is “++ (T-cell proliferation rate within the 20-40% range compared to the control group)”.
